Results from US10156560B1, “Locomotive biological machines” (The Board of Trustees of the University of Illinois, priority 2013, dated 2018).
Entries after “also recorded” stand apart in the source; their conditions may differ.

Assays:
Assay type in all cases: cell-based
C2C12 muscle strips [1] = assay: Passive tension force of muscle strips from beam deflection
Description: Using Euler-Bernoulli linear bending theory, a formula was derived relating the observed hydrogel beam deflection to the muscle-generated passive tension force. Assuming negligible rotation in the beam and a small angle approximation, equating the applied moment M to tension P times the moment arm I from the muscle strip to the beam reduced the second-order differential equation to
[formula] where I is the moment of inertia of the rectangular cross-section and y is the horizontal deflection of the beam. Boundary conditions were applied by assuming zero deflection at ends of the beam (L=0) and maximum deflection δmas at the center (L/2).
[formula] Beam dimensions, moment arm, and maximum deflection were averaged from 3 measurements of each device using the Measure Tool in ImageJ (NIH). Solving for P yielded the relation:
Finite element analysis was then used to model and simulate global displacement of the beam and pillars in response to an applied force; the simulated deflection values differed 18-19% from actual measurements.
To determine an optimal matrix system for engineered muscle functionality, the passive tension forces generated by collagen- and fibrin-based cell-matrix systems were compared. In muscle strips comprising the same number of cells, a significant increase in passive tension in those containing fibrin (629.3±8.2 μN) compared to collagen (534.2±5.8 μN) was observed. Advantageously, fibrin polymerizes relatively quickly when compared to other ECM proteins, and it can undergo large deformations without breaking (Liu et al., 2006, Science 313(5787):634; Janmey et al., 2009, J R Soc Interface 6(30):1-10). […]
This significant increase in force production was likely due to a greater number of differentiated myotubes in muscle strips supplemented with IGF-1. A normalized stress in the muscle strips with IGF-1 was calculated by dividing the passive tension by the cross-sectional area of the tissue, which averaged 1.2±0.04 mm^2 (n=9). […]

C2C12 muscle strips [2] = assay: Lifetime of fibrin muscle strip bio-bots (days until fracture)
Description: Similarly, the lifetime of fibrin muscle strip bio-bots (i.e. days until fracture of the muscle strip) was affected by the presence or absence of 50 ng/mL IGF-1 and/or 1 mg/mL aminocaproic acid. There was a significant increase in the fibrin muscle strip lifetime with the addition of 1 mg/mL aminocaproic acid (25±1.15 days) compared to the control of 10% HS (8.75±7.63).

C2C12 myoblasts [3] = assay: Differentiation, viability (MTS) and proliferation in muscle strips
Description: After 7 days, the myoblasts were induced to differentiate by switching to high-glucose DMEM supplemented with 10% horse serum (Lonza) and 50 ng/mL insulin-like growth factor-1 (IGF-1, Sigma). A protease inhibitor, aminocaproic acid (1 mg/mL, Sigma) was added to the growth and differentiation medium to prevent degradation of the extracellular matrix proteins by the cells. Differentiated, multinucleated myotubes were distributed throughout muscle strips supplemented with IGF-1.
An MTS assay was used to evaluate cell viability over time. Muscle strips comprising […] and supplemented with IGF-1 and aminocaproic acid were incubated with MTS (Promega) and phenazine methosulfate (Sigma-Aldrich) in DMEM without phenol red for 4 h at 37° C. Absorbance of MTS formazan product formation was measured at 490 nm using a Synergy HT microplate reader (BioTek) for four different time points and normalized to day 0 (day of cell seeding). The relative absorbance of muscle strips indicated a viability of cells within the muscle strip of 85.76±10.74% and 79.71±14.78% after days 6 and 9, respectively.

C2C12 muscle strips [4] = assay: Electrically paced actuation of fibrin-based muscle strips
Description: To externally control muscle contraction and bio-bot locomotion, a custom-designed setup (Bajaj et al., 2011, Integr Biol (Camb) 3(9):897-909) was used to stimulate reproducible contraction of excitable cells within the muscle strip with a bipolar electrical pulse train (FIGS. 30A and 30B). The output from a waveform generator was amplified through an AD797 inverting amplifier. A capacitor C was added in series to minimize electrolysis of the media by converting the square pulse to a biphasic pulse; the system was then treated as an RC circuit (FIG. 30B). A 35-mm culture dish was modified to allow Pt electrodes of diameter 0.762 mm to pass through the lid of the dish. The average resistance of the electrical stimulation medium (DMEM without serum) was calculated by measuring the time constant τ from the oscilloscope and dividing by C for each volume at 23° C. and 37° C. The conductivity of the medium was measured using a pH/Conductivity meter (Orion 4-Star, Thermo Scientific), at 23° C. and 37° C. During stimulation, the bio-bot was placed in 4 mL of warm electrical stimulation medium between the positive and ground electrodes, and a current was applied perpendicular to the long axis, with stimulation frequencies up to 10 Hz and never exceeding more than half of the sampling frequency, per the Nyquist criterion. Bio-bots were stimulated with bipolar electrical pulses of 20 V amplitude (21.6 V/cm field strength) and 50 ms pulse width. Simultaneous imaging was achieved by positioning the dish on the stage of a stereoscope. Top-view movies were acquired with a stereomicroscope with a digital microscope camera at 9.2 fps. Side-view movies were acquired using a camcorder (Handycam DCR-SR65, Sony) at 30 fps. Electrodes were sterilized in 70% ethanol and rinsed with PBS between experiments.
Twitch contractions were observed below 8-10 Hz and tetanus above this upper frequency limit.
A Kelvin-Voigt viscoelasticity model that correlated the observed cyclic displacement to the contractile force was used to extract the active tension generated by IGF-1 supplemented muscle strips in response to electrical stimulation. The active stress generated by the muscle strip was computed as a function of the strain ε(t) and strain rate dε(t)/dt observed in the hydrogel beam with viscosity η. The time-varying displacement data was converted into time-varying strain, and the following equation was used to compute the resulting active stress: […]
The range of active tension during contraction decreased with increasing stimulation frequency, from a dynamic fluctuation of 198.68 μN during 1 Hz stimulation to 109.48 μN during 4 Hz stimulation. The active tension data followed a positive force-frequency relationship in which the magnitude of the active tension exerted by the muscle increased, even while the range of pillar motion decreased.

C2C12 myoblasts [5] = assay: Compaction and snapping of collagen-based 3D skeletal muscle strips
Description: C2C12 myoblasts were transfected with pAAV-Cag-Chr2-GFP-2A-Puro with Lipofectamine 2000 (Invitrogen, Carlsbad, Calif.) and grown under puromycin (2.5 μg/mL) selection for 2 weeks. Before cell seeding, bio-bots were positioned beam-down in polymerized holders in a 35-mm cell culture dish and aspirated of excess liquid. A liquid suspension of C2C12 skeletal muscle myoblasts and ECM proteins was added around the pillars of the bio-bot and polymerized via gelation of the matrix proteins. Embedded cells exerted traction forces on the fibrous proteins via integrin attachments to compact the matrix into a muscle strip over time, and the capped pillars acted as a physical anchor for the muscle strip to mimic the in vivo musculoskeletal arrangement in which force transmission occurs from a contracting muscle to bone through a connecting tendon. The ECM was a mixture of i) type I collagen or fibrin and ii) Matrigel™, a composition of laminin, entactin, and type IV collagen. Collagen and fibrin were chosen because naturally-derived hydrogels undergo macro-scale compaction when mixed with cells, leading to a substantially higher cell density and unidirectional cell alignment between the posts. For collagen strips, a cooled suspension of liquid type I collagen from rat tail (0.8, 1.4, or 2.0 mg/mL, BD Biosciences) was mixed with equal parts ice-cold growth medium and neutralized with 0.01 N NaOH. Pelleted cells (1.0-10.0×10^6 cells/mL) were resuspended in ice-cold growth medium and mixed with Matrigel™ (30% v/v, BD Biosciences). Liquid neutralized type I collagen was mixed thoroughly with cells (C2C12 myoblasts (ATCC)) and Matrigel™, and the mixtures were added to each holder. For fibrin muscle strips, an ice-cold cell-matrix solution of Matrigel™ (30% of total cell-matrix volume), fibrinogen (4 mg/mL, Sigma-Aldrich), thrombin from bovine plasma (0.5 U/mg fibrinogen, Sigma-Aldrich), and C2C12s suspended in GM at a concentration of 5×10^6 cells/mL were added to each holder. The post/beam assemblies were then incubated at 37° C. to induce collagen/fibrin polymerization, and growth medium was added to each assembly upon gelation. Time-lapsed compaction was captured with a stereomicroscope (MZ FL III, Leica).
To confirm that gel compaction was caused by traction forces from the cells, muscle strips were treated with 50 μg/mL blebbistatin (FIG. 27A). Blebbistatin blocks myosin II activity in the cells, which prevents inward translation of the traction forces. […] The muscle strips treated with IGF-1 (50 ng/mL) compacted rapidly but snapped near the posts within 24 h (FIG. 27C). Thus, the formation of muscle strips was cell-induced through passive tension around the two posts. […]

Compound: IGF-1: insulin-like growth factor 1, a potent mitogen
- increase in passive tension force compared to control without IGF-1 (C2C12 muscle strips [1]; fibrin-based muscle strips): 70.7%
- passive tension force (C2C12 muscle strips [1]; fibrin-based muscle strips supplemented with IGF-1): 992.7±34.3 μN
- passive stress (C2C12 muscle strips [1]; muscle strips with IGF-1, tension divided by cross-sectional area): 0.84±0.03 kPa
- decrease in days until fracture compared to the 1 mg/mL ACA condition (C2C12 muscle strips [2]; 50 ng/mL): 22.0%
- decrease in days until fracture compared to the control (C2C12 muscle strips [2]; 50 ng/mL, control 10% HS): 51.43%
- portion of the fibrin-based muscle strip occupied by cells (C2C12 myoblasts [3]; 50 ng/mL): more than doubled
- cell proliferation compared to control muscle strips (C2C12 myoblasts [3]; day 9): enhanced cell proliferation
- range of active tension during contraction (C2C12 muscle strips [4]; 1 Hz stimulation): 198.68 μN
- range of active tension during contraction (C2C12 muscle strips [4]; 4 Hz stimulation): 109.48 μN
- Output (C2C12 muscle strips [4]; stimulation 1 Hz): 1.01 ± 0.003 Contractions/s
- Output (C2C12 muscle strips [4]; stimulation 2 Hz): 2.01 ± 0.01 Contractions/s
- Output (C2C12 muscle strips [4]; stimulation 4 Hz): 3.95 ± 0.05 Contractions/s

Compound: NCCCCCC(=O)O [aminocaproic acid, ε-aminocaproic acid]
- snapping of collagen muscle strip (C2C12 myoblasts [5]; 1 mg/mL in medium): remained intact
- time muscle strip remained stable (C2C12 myoblasts [5]; 1 mg/mL in medium): > 14 days
- snapping of collagen muscle strip (C2C12 myoblasts [5]; 1 mg/mL in medium, listed as EAC): prevented the muscle strip from snapping
- fibrin muscle strip lifetime (days until fracture) (C2C12 muscle strips [2]; 1 mg/mL): 25 ± 1.15 days

Compound: Cc1ccc2c(c1)C(=O)C1(O)CCN(c3ccccc3)C1=N2 (centres unmarked) [blebbistatin]
- compaction of muscle strip (C2C12 myoblasts [5]; blebbistatin in medium, 48 hours of culture): lack of compaction; also recorded: prevented its compaction
